Test results as given in PMC8042122 (Scientific Reports, 2021).
Entries after “also recorded” stand apart in the source; their conditions may differ. Like-named read-outs stand apart in the source and are kept apart here. No end group written: not given here.

Columns and labels:
[1] = tested on: F. graminearum CBS185.32 strain; assay type: cell-based, Fusarium graminearum
[2] = tested on: F. graminearum CBS185.32 strain; assay type: cell-based, Fusarium graminearum; remark: listed apart in the source
[3] = tested on: F. graminearum CBS185.32 strain; assay type: cell-based, Fusarium graminearum; remark: listed apart in the source
[4] = tested on: F. graminearum strain 8/1; settings: cited from earlier work
bacterial growth = settings: cited from earlier work

| Substance | Effect on fungal growth (dry fungal biomass weight) [1] | DON production ([2]; 50 µM) | 15-ADON production ([3]; 50 µM) | Effect on fungal growth (fungal biomass weight) ([1]; 50 µM) | further results |
| --- | --- | --- | --- | --- | --- |
| CGNFLKRTCICVKK (disulfide (positions not given here)) [TC3Ox] | reduced effect | significantly decreased | significantly decreased | – | DON production ([2]; 25 µM): significantly decreased; 15-ADON production ([3]; 25 µM): significantly decreased |
| C(CH3)GNFLKRTCICVKK [TC3-CH3-1, TC3 with Cys1 capped with a methyl group] | – | reduction | reduction | significantly less effect | Reduction of 15-ADON production ([3]; 50 µM): about 33% |
| CGNFLKRTCICVKK [TC3, γ-core of the Ixodes ricinus defensin DefMT3, reduced (linear) form] | significant dose-dependent inhibition | trace amounts; also recorded: abrogated | trace amounts; also recorded: abrogated | – | Reduction of fungal growth (fold) ([1]; 50 µM): 1.8 times; DON production ([2]; 12.5 µM): non-significant reduction; DON production ([2]; 25 µM): trace amounts; 15-ADON production ([3]; 12.5 µM): non-significant reduction; 15-ADON production ([3]; 25 µM): trace amounts; Effect on germination [4]: decrease germination; Effect on bacterial growth (bacterial growth): little or no effect |
| CGNFLKRTCICVKT [TC3-K14T, TC3 with Lys 14 substituted by Thr] | no effect | – | – | – | – |
| CGNFLKRTC(CH3)ICVKK [TC3-CH3-2, TC3 with Cys9 capped with a methyl group] | – | – | – | significantly less effect | – |
| C(CH3)GNFLKRTCICVKK (disulfide) [TC3-CH3-1Ox, TC3-CH3-1 oxidized, cyclized through the non-capped Cys] | – | reduction | reduction | significantly less effect | Reduction of 15-ADON production ([3]; 50 µM): about 42% |
| CGNFLKRTCIC(CH3)VKK [TC3-CH3-3, TC3 with Cys11 capped with a methyl group] | – | – | – | significantly less effect | – |
| CGNFLKRTC(CH3)ICVKK (disulfide) [TC3-CH3-2Ox, TC3-CH3-2 oxidized, cyclized through the non-capped Cys] | – | – | – | significantly less effect | – |
| CGNFLKRTCIC(CH3)VKK (disulfide) [TC3-CH3-3Ox, TC3-CH3-3 oxidized, cyclized through the non-capped Cys] | – | – | – | significantly less effect | – |
| C(CH3)GNFLKRTC(CH3)IC(CH3)VKK [TC3-CH3-123, TC3 with all Cys capped with CH3 groups] | – | significantly more | significantly more | – | – |
